According to patent publication US20250042887A1, “GLYCOGEN SYNTHASE KINASE-3 (GSK3) INHIBITOR COMPOUNDS FOR USE AS ANTIVIRAL AGENTS” (priority 2021, published 2025):
Where two headings read alike, the source gives them in different places. Where no end group is shown, it is not given here. [ ]: non-standard residue; d: D form. pS = N[C@@H](COP(=O)(O)O)C(=O)O

How the values were obtained:
HCoV-229E = assay: High-content screen of GSK3β-focused library in HCoV-229E infected Huh-7.5.1 cells (intracellular dsRNA); format: cell-based, human coronavirus 229E (HCoV-229E); conditions: Human coronavirus 229E, single dose of 10 μM, Z′ 0.7
Huh-7.5.1 cells = conditions: single dose of 10 μM
Method: High content screening methodology and parameters. Monitoring of the total number of cells (based on nuclei staining) and number of virus infected cells (based on dsRNA and Nucleocapsid staining) was performed using the CellInsight CX7™ High Content Screening platform (Thermo Fisher™), as previously described (33042061). Shortly, nuclei are identified and counted using the 350′461 nm wavelength (Hoechst 33342™); cell debris and other particles are deducted based on a size filter tool. A Region of Interest (ROI, or “circle”) is then drawn around each host cell and validated against the bright field image to correspond with host cell membranes. The ROI encompasses the “spots”, where dsRNA (485/521 nm wavelength) and SARS-CoV-2 nucleocapsid (533/588 nm wavelength) are localized. Finally, the software (HCS Studio Cell Analysis Software™, version 4.0) identifies, counts and measures the pixel area and intensity of the spots within each circle. The fluorescent spot area measured within each cell (circle) is then added and quantified for each well. The total circle spot intensity of each well corresponds to the viral load, and is normalized to non-infected cells, and to cells infected with no compound. Nuclei stain (Hoechst 33342™) was used to quantify cell loss (due to cytotoxicity or loss of adherence), and to normalize the changes in viral load resulting from a decrease in cell numbers.

SARS-CoV-2 = assay: High-content screen of GSK3β-focused library in SARS-CoV-2 infected Huh-7.5.1 cells (dsRNA or nucleocapsid); format: cell-based; conditions: for inhibition at 10 µM: Severe acute respiratory syndrome coronavirus 2, single dose of 10 μM, Huh-7.5.1 cells; for Activity (SARS-CoV-2): see TABLE A
[1] = molecular target: T1, protein kinase C-alpha (PKC α) (Homo sapiens, UniProt P17252); assay: In vitro phosphorylation of nucleocapsid peptides, ADP-Glo, PKCa; format: biochemical; conditions: for Relative Phosphorylation to No Kinase Control, PKCa: Mean ± S.Dev. (n = 3), no kinase control = 100; for Relative Phosphorylation to Autophosphorylation Control (set at 100), PKCa: peptide ~250 μM, 250 μM ATP, 30 min at 30° C., duplicate measurements
T1 construct: GST; purchased SignalChem P61-18G

[2] = molecular target: cAMP-dependent protein kinase catalytic subunit-alpha (PKACa) (Homo sapiens, UniProt P17612); assay: In vitro phosphorylation of nucleocapsid peptides, ADP-Glo, PKACa; format: biochemical; conditions: peptide ~250 μM, 250 μM ATP, 30 min at 30° C.; duplicate measurements
[3] = molecular target: T2, glycogen synthase kinase-3-beta (Homo sapiens, UniProt P49841); assay: In vitro phosphorylation of nucleocapsid peptides, ADP-Glo, GSK3b; format: biochemical; conditions: for Relative Phosphorylation to No Kinase Control, GSK3b: Mean ± S.Dev. (n = 3), no kinase control = 100; for Relative Phosphorylation to Autophosphorylation Control (set at 100), GSK3b: peptide ~250 μM, 250 μM ATP, 30 min at 30° C., duplicate measurements
T2 construct: GST; purchased SignalChem Go9-10G
T2 sequence (P49841 whole entry): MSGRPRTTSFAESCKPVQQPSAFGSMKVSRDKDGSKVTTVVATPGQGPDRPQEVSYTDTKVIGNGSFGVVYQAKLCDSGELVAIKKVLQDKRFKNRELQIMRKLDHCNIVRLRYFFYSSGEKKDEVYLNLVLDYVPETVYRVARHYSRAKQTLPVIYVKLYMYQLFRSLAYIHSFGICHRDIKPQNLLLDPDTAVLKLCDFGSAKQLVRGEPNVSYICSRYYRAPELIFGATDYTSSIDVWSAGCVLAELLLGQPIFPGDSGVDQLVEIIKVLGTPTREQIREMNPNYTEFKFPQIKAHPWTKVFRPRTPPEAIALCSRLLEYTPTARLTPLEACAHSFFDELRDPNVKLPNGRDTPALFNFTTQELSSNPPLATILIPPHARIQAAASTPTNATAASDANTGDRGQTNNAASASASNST

PKCa + GSK3b = assay: In vitro phosphorylation of nucleocapsid peptides, ADP-Glo, PKCa + GSK3b combined; format: biochemical, human; conditions: Mean ± S.Dev. (n = 3); no kinase control = 100
[4] = molecular target: T3, casein kinase 2-alpha-1 (CK2a1) (Homo sapiens, UniProt P68400); assay: In vitro phosphorylation of nucleocapsid peptides, ADP-Glo, CK2a1; format: biochemical; conditions: peptide ~250 μM, 250 μM ATP, 30 min at 30° C.; duplicate measurements
T3 construct: GST; purchased SignalChem C70-10G
T3 sequence (P68400 whole entry): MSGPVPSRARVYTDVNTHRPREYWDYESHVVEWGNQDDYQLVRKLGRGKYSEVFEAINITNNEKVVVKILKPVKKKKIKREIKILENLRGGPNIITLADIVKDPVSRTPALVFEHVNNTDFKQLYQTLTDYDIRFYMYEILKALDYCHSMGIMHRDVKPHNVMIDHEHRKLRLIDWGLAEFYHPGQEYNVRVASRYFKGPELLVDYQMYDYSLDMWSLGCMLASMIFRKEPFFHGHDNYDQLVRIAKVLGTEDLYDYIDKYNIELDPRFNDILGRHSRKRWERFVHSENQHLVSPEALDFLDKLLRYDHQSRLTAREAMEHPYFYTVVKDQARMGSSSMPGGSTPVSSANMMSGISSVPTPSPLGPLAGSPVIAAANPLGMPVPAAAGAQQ

[5] = Z′ 0.3, read-out: SARS-CoV-2 inhibition (% dsRNA)
[6] = average of screens 1 and 2, read-out: Average SARS-CoV-2 Nucleocapsid inhibition
[7] = screen 1, Z′ 0.7, read-out: SARS-CoV-2 inhibition (% Nucleocapsid) 1
[8] = screen 2, Z′ 0.5, read-out: SARS-CoV-2 inhibition (% Nucleocapsid) 2

With COc1ccc(-n2cnc3ccc(-c4nnc(SCc5cccc(C#N)c5)o4)cc32)cc1 [Compound P-0780332] the inhibition at 10 µM (HCoV-229E) was 0%, the “Average cell loss (%)” value (Huh-7.5.1 cells) was 9.2% and the inhibition at 10 µM (SARS-CoV-2; [5]) was 0.6%. It also gave an inhibition at 10 µM (SARS-CoV-2; [6]) of 0%, an inhibition at 10 µM (SARS-CoV-2; [7]) of 0% and an inhibition at 10 µM (SARS-CoV-2; [8]) of 0%. The “Activity (SARS-CoV-2)” value (SARS-CoV-2) was “inactive (see TABLE A)”.

In the case of CSc1ccc(-n2cnc3ccc(-c4nnc(CCc5cccc(C(F)(F)F)c5)o4)cc32)cc1 [Compound P-3817632], the inhibition at 10 µM (HCoV-229E) is reported as 87.7%, the “Average cell loss (%)” value (Huh-7.5.1 cells) is reported as 12.7% and the inhibition at 10 µM (SARS-CoV-2; [5]) is reported as 100%. It also gave an inhibition at 10 µM (SARS-CoV-2; [6]) of 71.4%, an inhibition at 10 µM (SARS-CoV-2; [7]) of 70.8% and an inhibition at 10 µM (SARS-CoV-2; [8]) of 72%. For the same compound, the “Activity (SARS-CoV-2)” value (SARS-CoV-2) was “active (see TABLE A)”.

With O=C(NCc1ccccn1)Nc1cc(N2CC(CCc3ccccc3)CC2=O)ccn1 (stereo not shown) [Compound P-4423632] the inhibition at 10 µM (HCoV-229E) was 43.2%, the “Average cell loss (%)” value (Huh-7.5.1 cells) was 12.0% and the inhibition at 10 µM (SARS-CoV-2; [5]) was 100%. For the same compound, the inhibition at 10 µM (SARS-CoV-2; [6]) was 95.2%, the inhibition at 10 µM (SARS-CoV-2; [7]) was 98% and the inhibition at 10 µM (SARS-CoV-2; [8]) was 92.4%. For the same compound, the “Activity (SARS-CoV-2)” value (SARS-CoV-2) was “active (see TABLE A)”.

With Cc1nnc(-c2ccc3occ(-c4ccc([S+](C)[O-])c(OC(F)(F)F)c4)c3c2)o1 (stereo not shown) [Compound P-5782442] the inhibition at 10 µM (HCoV-229E) was 60%, the “Average cell loss (%)” value (Huh-7.5.1 cells) was 16.1% and the inhibition at 10 µM (SARS-CoV-2; [5]) was 100%. For the same compound, the inhibition at 10 µM (SARS-CoV-2; [6]) was 93.8%, the inhibition at 10 µM (SARS-CoV-2; [7]) was 93.3% and the inhibition at 10 µM (SARS-CoV-2; [8]) was 94.4%. The “Activity (SARS-CoV-2)” value (SARS-CoV-2) was “active (see TABLE A)”.

In the case of “RGGSQASSRSS(pS)RS (RGGSQASSRSS[pS]RS) [SCV2-N [177-190]-pS188, synthetic peptide modeled after SARS-CoV-2 nucleocapsid protein phosphorylation sites, pre-phosphorylated at S188]”, the “Relative Phosphorylation to No Kinase Control, PKCa” value [1] is reported as 3861 ± 71, the “Relative Phosphorylation to Autophosphorylation Control (set at 100), PKCa” value (“Relative Phosphorylation … (set at 100), PKCa” below) [1] is reported as 389 and the “Relative Phosphorylation to Autophosphorylation Control (set at 100), PKACa” value (“Relative Phosphorylation … PKACa” for short) [2] is reported as 128. The “Relative Phosphorylation to No Kinase Control, GSK3b” value [3] was 24,585 ± 645 and the “Relative Phosphorylation to Autophosphorylation Control (set at 100), GSK3b” value (shortened to “Relative Phosphorylation … (set at 100), GSK3b”) [3] was 1209.

In the case of “RGGSQASSRSSSRS [SCV2-N [177-190], synthetic peptide modeled after SARS-CoV-2 nucleocapsid protein phosphorylation sites]”, the “Relative Phosphorylation to No Kinase Control, PKCa” value [1] is reported as 13,714 ± 502, the “Relative Phosphorylation … (set at 100), PKCa” value [1] is reported as 1320 and the “Relative Phosphorylation … PKACa” value [2] is reported as 162. The “Relative Phosphorylation to No Kinase Control, GSK3b” value [3] was 2161 ± 63, the “Relative Phosphorylation … (set at 100), GSK3b” value [3] was 107 and the “Relative Phosphorylation to No Kinase Control, PKCa + GSK3b” value (PKCa + GSK3b) was 3572 ± 22.

With “SQASSRSSSR(pS)RNS (SQASSRSSSR[pS]RNS) [SCV2-N [180-193]-pS190, synthetic peptide modeled after SARS-CoV-2 nucleocapsid protein phosphorylation sites, pre-phosphorylated at S190]” the “Relative Phosphorylation to No Kinase Control, PKCa” value [1] was 4161 ± 66, the “Relative Phosphorylation … (set at 100), PKCa” value [1] was 418 and the “Relative Phosphorylation to Autophosphorylation Control (set at 100), CK2a1” value [4] was 100. For the same compound, the “Relative Phosphorylation … PKACa” value [2] was 312, the “Relative Phosphorylation to No Kinase Control, GSK3b” value [3] was 2957 ± 3 and the “Relative Phosphorylation … (set at 100), GSK3b” value [3] was 111.

In the case of “SQASSRSSSRSRNS [SCV2-N [180-193], synthetic peptide modeled after SARS-CoV-2 nucleocapsid protein phosphorylation sites]”, the “Relative Phosphorylation to No Kinase Control, PKCa” value [1] is reported as 16,366 ± 261, the “Relative Phosphorylation … (set at 100), PKCa” value [1] is reported as 1278 and the “Relative Phosphorylation to Autophosphorylation Control (set at 100), CK2a1” value [4] is reported as 101. The “Relative Phosphorylation … PKACa” value [2] was 123, the “Relative Phosphorylation to No Kinase Control, GSK3b” value [3] was 2407 ± 23 and the “Relative Phosphorylation … (set at 100), GSK3b” value [3] was 102. The “Relative Phosphorylation to No Kinase Control, PKCa + GSK3b” value (PKCa + GSK3b) was 3836 ± 41.
